# According to patent US20230365546A1, “5-SUBSTITUTED INDOLE 3-AMIDE DERIVATIVES, PREPARATION METHOD AND USE THEREOF” (ORIGIANT PHARMACEUTICAL CO., LTD, priority 2020, published 2023):
# Columns and labels:
# PRP4(h) = PRP4(h) (Homo sapiens (Human), UniProt Q13523); experiment: Kinase Profiler 10 μM panel; format: biochemical
# Protocol: (§1) In vitro kinase assays were conducted using Kinase Profiler services provided by Eurofins. The experimental method was as follows: the small molecule compound to be tested (0.001-10 μM), the protein kinase to be tested were incubated with a buffer containing substrate, 10 mM magnesium acetate, and [γ-^33P-ATP], the reaction was started by adding Mg\TPmix, after incubation for a period of time at room temperature, a 3% phosphate solution was added to the buffer to stop the reaction. Subsequently, 10 μL of the reaction mixture was quantitatively pipetted onto P30 filter paper, which was washed three times with 75 mM phosphate solution and then once with methanol. The P30 filter paper was air-dried and scintillation fluid was added for scintillation counting.
# [1] = test system: 422 kinases (including mutants); experiment: Kinase selectivity profile over the Eurofins panel; format: biochemical; conditions: 10 μM, Tables 3 and 4, FIGS. 1 and 2
# Excerpt: The selectivity profiles for Compounds 34 and 94 were plotted according to the data in Table 3 and Table 4. Wherein the red circular spot indicated the kinase were inhibited obviously, and the larger the radius of the red spot, the higher the inhibition against the kinase, and vice versa.
# Abl (Q252H)(h) = Abl (Q252H)(h) (Homo sapiens (Human), UniProt P00519, Q252H); experiment: Kinase Profiler 10 μM panel
# Protocol: as §1
# PI3KC2g(h) = PI3KC2g(h) (Homo sapiens (Human), UniProt O75747); experiment: Kinase Profiler 10 μM panel
# Protocol: as §1
# GSK3α(h) = GSK3α(h) (Homo sapiens (Human), UniProt P49840); experiment: Kinase Profiler 10 μM panel
# Protocol: as §1
# Haspin(h) = Haspin(h) (Homo sapiens (Human), UniProt Q8TF76); experiment: Kinase Profiler 10 μM panel
# Protocol: as §1
# ASK1(h) = ASK1(h) (Homo sapiens (Human), UniProt Q99683); experiment: Kinase Profiler 10 μM panel
# Protocol: as §1
# HIPK1(h) = HIPK1(h) (Homo sapiens (Human), UniProt Q86Z02); experiment: Kinase Profiler 10 μM panel
# Protocol: as §1
# PKA(h) = PKA(h) (Homo sapiens (Human), UniProt P17612); experiment: Kinase Profiler 10 μM panel
# Protocol: as §1
# HIPK4(h) = HIPK4(h) (Homo sapiens (Human), UniProt Q8NE63); experiment: Kinase Profiler 10 μM panel
# Sequence of HIPK4(h) (Q8NE63 whole entry): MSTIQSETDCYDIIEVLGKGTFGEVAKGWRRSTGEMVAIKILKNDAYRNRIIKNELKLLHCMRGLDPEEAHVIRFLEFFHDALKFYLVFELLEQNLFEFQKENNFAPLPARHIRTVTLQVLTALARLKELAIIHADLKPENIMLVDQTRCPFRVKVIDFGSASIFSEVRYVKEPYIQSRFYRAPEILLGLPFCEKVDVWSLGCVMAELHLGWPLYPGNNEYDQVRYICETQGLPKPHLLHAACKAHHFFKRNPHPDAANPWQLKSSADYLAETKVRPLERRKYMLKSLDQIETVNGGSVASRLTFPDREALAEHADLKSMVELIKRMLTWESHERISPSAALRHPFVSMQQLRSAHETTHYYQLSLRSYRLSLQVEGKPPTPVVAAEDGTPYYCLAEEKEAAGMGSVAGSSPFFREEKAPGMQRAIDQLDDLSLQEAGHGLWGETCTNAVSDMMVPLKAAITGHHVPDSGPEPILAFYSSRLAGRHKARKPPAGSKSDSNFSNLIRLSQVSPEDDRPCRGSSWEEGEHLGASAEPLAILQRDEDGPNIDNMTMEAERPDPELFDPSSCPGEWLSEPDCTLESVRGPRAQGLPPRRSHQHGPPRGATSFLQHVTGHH
# Protocol: as §1
# PKCα(h) = PKCα(h) (Homo sapiens (Human), UniProt P17252); experiment: Kinase Profiler 10 μM panel
# Protocol: as §1
# Blk(h) = Blk(h) (Homo sapiens (Human), UniProt P51451); experiment: Kinase Profiler 10 μM panel
# Protocol: as §1
# Itk(h) = Itk(h) (Homo sapiens (Human), UniProt Q08881); experiment: Kinase Profiler 10 μM panel
# Protocol: as §1
# Plk4(h) = Plk4(h) (Homo sapiens (Human), UniProt O00444); experiment: Kinase Profiler 10 μM panel
# Protocol: as §1
# CaMKK2(h) = CaMKK2(h) (Homo sapiens (Human), UniProt Q96RR4); experiment: Kinase Profiler 10 μM panel
# Sequence of CaMKK2(h) (Q96RR4 whole entry): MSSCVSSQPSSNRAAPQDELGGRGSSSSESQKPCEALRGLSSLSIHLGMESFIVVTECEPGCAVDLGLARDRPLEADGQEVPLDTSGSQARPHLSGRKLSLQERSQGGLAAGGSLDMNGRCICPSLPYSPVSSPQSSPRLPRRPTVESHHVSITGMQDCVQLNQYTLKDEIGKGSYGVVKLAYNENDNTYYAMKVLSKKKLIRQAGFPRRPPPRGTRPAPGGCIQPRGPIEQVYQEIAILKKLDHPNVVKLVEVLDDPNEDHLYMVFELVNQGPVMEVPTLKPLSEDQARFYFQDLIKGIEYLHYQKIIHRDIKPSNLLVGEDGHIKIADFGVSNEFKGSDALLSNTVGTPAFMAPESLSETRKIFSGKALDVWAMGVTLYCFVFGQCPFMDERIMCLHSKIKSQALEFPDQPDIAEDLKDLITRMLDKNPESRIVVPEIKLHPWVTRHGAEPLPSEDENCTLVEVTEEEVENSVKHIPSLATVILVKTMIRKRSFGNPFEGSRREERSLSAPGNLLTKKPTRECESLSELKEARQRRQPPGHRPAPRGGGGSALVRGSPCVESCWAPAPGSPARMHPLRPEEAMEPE
# Protocol: as §1
# CDK12/cyclinK(h) = CDK12/cyclinK(h) (Homo sapiens (Human), UniProt Q9NYV4); experiment: Kinase Profiler 10 μM panel
# Sequence of CDK12/cyclinK(h) (Q9NYV4 whole entry): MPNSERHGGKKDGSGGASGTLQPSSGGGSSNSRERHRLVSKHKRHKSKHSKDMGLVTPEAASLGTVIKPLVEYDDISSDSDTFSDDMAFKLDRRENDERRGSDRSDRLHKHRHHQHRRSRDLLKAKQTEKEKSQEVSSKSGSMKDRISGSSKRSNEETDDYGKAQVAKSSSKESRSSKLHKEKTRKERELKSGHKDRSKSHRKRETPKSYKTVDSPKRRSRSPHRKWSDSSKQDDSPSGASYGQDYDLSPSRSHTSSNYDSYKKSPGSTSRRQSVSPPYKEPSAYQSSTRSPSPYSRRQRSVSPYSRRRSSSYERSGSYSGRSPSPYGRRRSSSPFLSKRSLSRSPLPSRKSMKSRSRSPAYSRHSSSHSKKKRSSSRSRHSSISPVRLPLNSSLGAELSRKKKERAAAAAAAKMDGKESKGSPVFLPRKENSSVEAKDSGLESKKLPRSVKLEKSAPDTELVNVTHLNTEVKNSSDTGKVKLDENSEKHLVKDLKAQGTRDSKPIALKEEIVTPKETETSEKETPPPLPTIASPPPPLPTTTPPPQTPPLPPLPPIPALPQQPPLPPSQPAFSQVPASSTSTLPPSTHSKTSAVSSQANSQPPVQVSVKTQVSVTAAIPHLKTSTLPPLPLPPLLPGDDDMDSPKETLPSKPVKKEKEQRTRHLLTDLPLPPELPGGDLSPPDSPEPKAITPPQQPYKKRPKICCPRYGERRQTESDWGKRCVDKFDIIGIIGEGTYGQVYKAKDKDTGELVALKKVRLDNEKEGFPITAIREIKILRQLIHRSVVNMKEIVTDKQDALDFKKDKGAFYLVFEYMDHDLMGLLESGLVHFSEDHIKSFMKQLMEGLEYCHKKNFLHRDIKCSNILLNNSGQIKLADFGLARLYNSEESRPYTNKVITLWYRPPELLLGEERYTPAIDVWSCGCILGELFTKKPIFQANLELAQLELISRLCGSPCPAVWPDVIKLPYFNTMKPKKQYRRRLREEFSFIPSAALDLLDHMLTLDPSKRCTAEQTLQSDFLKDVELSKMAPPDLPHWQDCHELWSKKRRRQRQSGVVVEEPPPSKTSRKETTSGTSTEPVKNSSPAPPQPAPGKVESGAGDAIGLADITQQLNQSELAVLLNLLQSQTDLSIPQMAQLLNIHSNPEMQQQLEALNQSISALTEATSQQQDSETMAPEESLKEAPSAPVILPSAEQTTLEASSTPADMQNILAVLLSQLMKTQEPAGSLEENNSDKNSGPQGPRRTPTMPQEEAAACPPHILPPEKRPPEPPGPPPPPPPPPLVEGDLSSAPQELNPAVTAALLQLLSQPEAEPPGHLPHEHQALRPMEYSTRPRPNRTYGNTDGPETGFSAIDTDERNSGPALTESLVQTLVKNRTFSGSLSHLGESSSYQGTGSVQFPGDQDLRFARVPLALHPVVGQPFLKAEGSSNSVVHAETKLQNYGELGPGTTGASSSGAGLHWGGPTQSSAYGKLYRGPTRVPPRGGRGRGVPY
# Sequence of CDK12/cyclinK(h) (O75909 whole entry partner): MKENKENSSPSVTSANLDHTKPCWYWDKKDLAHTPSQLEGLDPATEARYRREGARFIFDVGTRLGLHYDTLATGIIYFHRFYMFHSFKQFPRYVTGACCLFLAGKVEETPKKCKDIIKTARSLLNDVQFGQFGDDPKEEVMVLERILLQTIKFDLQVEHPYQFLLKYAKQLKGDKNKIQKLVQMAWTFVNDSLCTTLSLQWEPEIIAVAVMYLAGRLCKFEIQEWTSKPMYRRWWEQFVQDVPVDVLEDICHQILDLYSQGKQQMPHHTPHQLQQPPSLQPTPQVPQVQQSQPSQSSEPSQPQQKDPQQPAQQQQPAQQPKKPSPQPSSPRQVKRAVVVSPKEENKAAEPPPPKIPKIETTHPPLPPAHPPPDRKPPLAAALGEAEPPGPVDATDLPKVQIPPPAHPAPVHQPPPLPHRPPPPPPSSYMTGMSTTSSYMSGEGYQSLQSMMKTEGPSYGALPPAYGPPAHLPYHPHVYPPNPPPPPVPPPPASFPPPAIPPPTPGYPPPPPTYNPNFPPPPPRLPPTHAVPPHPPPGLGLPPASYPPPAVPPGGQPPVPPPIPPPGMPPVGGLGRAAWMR
# Protocol: as §1
# MAP4K3(h) = MAP4K3(h) (Homo sapiens (Human), UniProt Q8IVH8); experiment: Kinase Profiler 10 μM panel
# Protocol: as §1
# MAPK2(m) = MAPK2(m) (Mus musculus (Mouse), UniProt P63085); experiment: Kinase Profiler 10 μM panel
# Protocol: as §1
# MARK1(h) = MARK1(h) (Homo sapiens (Human), UniProt Q9P0L2); experiment: Kinase Profiler 10 μM panel
# Protocol: as §1
# CDKL2(h) = CDKL2(h) (Homo sapiens (Human), UniProt Q92772); experiment: Kinase Profiler 10 μM panel
# Protocol: as §1
# Src(1-530)(h) = Src(1-530)(h) (Homo sapiens (Human), UniProt P12931); experiment: Kinase Profiler 10 μM panel
# Protocol: as §1
# cKit(V560G)(h) = cKit(V560G)(h) (Homo sapiens (Human), UniProt P10721, V560G); experiment: Kinase Profiler 10 μM panel
# Protocol: as §1
# STK32A(h) = STK32A(h) (Homo sapiens (Human), UniProt Q8WU08); experiment: Kinase Profiler 10 μM panel
# Protocol: as §1
# Syk(h) = Syk(h) (Homo sapiens (Human), UniProt P43405); experiment: Kinase Profiler 10 μM panel
# Protocol: as §1
# mTOR(h) = mTOR(h) (Homo sapiens (Human), UniProt P42345); experiment: Kinase Profiler 10 μM panel
# Protocol: as §1
# MYLK2(h) = MYLK2(h) (Homo sapiens (Human), UniProt Q9H1R3); experiment: Kinase Profiler 10 μM panel
# Protocol: as §1
# DYRK3(h) = DYRK3(h) (Homo sapiens (Human), UniProt O43781); experiment: Kinase Profiler 10 μM panel
# Sequence of DYRK3(h) (O43781 whole entry): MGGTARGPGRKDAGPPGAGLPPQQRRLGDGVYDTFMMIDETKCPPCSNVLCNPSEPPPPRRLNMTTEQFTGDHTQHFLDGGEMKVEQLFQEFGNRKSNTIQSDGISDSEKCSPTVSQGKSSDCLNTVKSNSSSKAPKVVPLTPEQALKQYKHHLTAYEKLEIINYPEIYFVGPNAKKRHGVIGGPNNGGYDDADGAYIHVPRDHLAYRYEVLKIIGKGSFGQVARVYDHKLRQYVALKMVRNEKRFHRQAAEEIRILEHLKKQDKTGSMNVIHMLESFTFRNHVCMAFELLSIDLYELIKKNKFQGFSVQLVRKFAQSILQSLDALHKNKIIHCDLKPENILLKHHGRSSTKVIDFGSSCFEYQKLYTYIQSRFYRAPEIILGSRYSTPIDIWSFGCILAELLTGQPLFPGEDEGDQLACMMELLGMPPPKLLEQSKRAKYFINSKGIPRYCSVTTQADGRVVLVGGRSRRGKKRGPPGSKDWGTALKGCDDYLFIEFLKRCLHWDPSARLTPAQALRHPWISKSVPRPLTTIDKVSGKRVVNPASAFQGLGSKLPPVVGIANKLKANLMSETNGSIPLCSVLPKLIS
# Protocol: as §1
# TrkA(h) = TrkA(h) (Homo sapiens (Human), UniProt P04629); experiment: Kinase Profiler 10 μM panel
# Protocol: as §1
# EGFR(L858R)(h) = EGFR(L858R)(h) (Homo sapiens (Human), UniProt P00533, L858R); experiment: Kinase Profiler 10 μM panel
# Protocol: as §1
# EGFR(L861Q)(h) = EGFR(L861Q)(h) (Homo sapiens (Human), UniProt P00533, L861Q); experiment: Kinase Profiler 10 μM panel
# Sequence of EGFR(L861Q)(h) (P00533 25-1210 L861Q): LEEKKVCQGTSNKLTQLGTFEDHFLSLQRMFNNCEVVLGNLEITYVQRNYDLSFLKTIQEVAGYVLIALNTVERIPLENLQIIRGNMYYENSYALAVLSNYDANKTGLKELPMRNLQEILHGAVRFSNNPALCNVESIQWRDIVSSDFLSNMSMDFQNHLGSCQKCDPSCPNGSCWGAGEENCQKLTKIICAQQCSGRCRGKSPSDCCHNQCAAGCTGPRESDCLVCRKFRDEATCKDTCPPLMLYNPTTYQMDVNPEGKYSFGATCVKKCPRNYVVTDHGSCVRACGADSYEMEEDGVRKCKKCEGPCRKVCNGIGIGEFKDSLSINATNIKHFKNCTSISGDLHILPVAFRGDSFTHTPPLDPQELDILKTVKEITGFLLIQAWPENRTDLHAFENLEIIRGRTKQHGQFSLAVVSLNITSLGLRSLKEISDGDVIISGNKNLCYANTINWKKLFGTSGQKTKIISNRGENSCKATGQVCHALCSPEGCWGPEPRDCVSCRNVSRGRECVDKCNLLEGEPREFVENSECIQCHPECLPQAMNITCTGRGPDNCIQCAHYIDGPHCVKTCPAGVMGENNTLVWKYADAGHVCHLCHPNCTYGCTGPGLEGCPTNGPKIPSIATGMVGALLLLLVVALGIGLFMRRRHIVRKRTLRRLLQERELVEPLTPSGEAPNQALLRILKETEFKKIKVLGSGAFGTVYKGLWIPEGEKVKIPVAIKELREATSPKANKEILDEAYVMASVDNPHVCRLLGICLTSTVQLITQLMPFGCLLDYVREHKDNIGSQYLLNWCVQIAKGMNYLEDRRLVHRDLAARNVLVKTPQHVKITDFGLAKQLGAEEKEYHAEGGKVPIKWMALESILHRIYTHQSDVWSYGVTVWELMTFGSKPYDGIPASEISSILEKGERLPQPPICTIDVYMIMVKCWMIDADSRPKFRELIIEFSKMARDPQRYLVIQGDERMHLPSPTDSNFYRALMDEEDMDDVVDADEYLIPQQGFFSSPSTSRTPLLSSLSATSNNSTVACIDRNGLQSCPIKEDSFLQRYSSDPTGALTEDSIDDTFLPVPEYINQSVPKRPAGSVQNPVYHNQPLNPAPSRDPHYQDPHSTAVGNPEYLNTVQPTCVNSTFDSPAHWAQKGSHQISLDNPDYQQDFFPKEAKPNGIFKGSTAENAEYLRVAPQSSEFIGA
# Protocol: as §1
# Txk(h) = Txk(h) (Homo sapiens (Human), UniProt P42681); experiment: Kinase Profiler 10 μM panel
# Protocol: as §1
# PASK(h) = PASK(h) (Homo sapiens (Human), UniProt Q96RG2); experiment: Kinase Profiler 10 μM panel
# Protocol: as §1
# [2] = biological target: PI3 Kinase (p110a(E542K)/p85a)(h) (Homo sapiens (Human), UniProt P42336, E542K); experiment: Kinase Profiler 10 μM panel
# Protocol: as §1
structure (smiles),measurement,setting,value
"C[C@H](NC(=O)c1c[nH]c2ccc(-c3ccc4nc(NC(=O)C5CC5)sc4c3)cc12)c1cccc(F)c1 [Compound 34, (S)-5-(2-(cyclopropanecarboxamido)benzo[d]thiazol-6-yl)-N-(1-(3-fluorophenyl)ethyl)-1H-indole-3-carboxamide]",Inhibition ratio,PRP4(h),4%
same,Kinase selectivity,[1],good kinase selectivity
same,Inhibition ratio,Abl (Q252H)(h),97%
same,Inhibition ratio,PI3KC2g(h),76%
same,Inhibition ratio,GSK3α(h),10%
same,Inhibition ratio,Haspin(h),39%
same,Inhibition ratio,ASK1(h),12%
same,Inhibition ratio,HIPK1(h),68%
same,Inhibition ratio,PKA(h),−12%
same,Inhibition ratio,HIPK4(h),95%
same,Inhibition ratio,PKCα(h),6%
same,Inhibition ratio,Blk(h),65%
same,Inhibition ratio,Itk(h),99%
same,Inhibition ratio,Plk4(h),14%
same,Inhibition ratio,CaMKK2(h),34%
same,Inhibition ratio,CDK12/cyclinK(h),21%
same,Inhibition ratio,MAP4K3(h),95%
same,Inhibition ratio,MAPK2(m),12%
same,Inhibition ratio,MARK1(h),6%
same,Inhibition ratio,CDKL2(h),68%
same,Inhibition ratio,Src(1-530)(h),54%
same,Inhibition ratio,cKit(V560G)(h),88%
same,Inhibition ratio,STK32A(h),16%
same,Inhibition ratio,Syk(h),98%
same,Inhibition ratio,mTOR(h),−7%
same,Inhibition ratio,MYLK2(h),55%
same,Inhibition ratio,DYRK3(h),48%
same,Inhibition ratio,TrkA(h),102%
same,Inhibition ratio,EGFR(L858R)(h),65%
same,Inhibition ratio,EGFR(L861Q)(h),49%
same,Inhibition ratio,Txk(h),47%
same,Inhibition ratio,PASK(h),−25%
same,Inhibition ratio,[2],38%
"C[C@H](NC(=O)c1cn(C)c2ccc(-c3ccn4nc(NC(=O)C5CC5)nc4c3)cc12)c1cccc(F)c1 [Compound 94, (S)-5-(2-(cyclopropanecarboxamido)-[1,2,4]triazolo[1,5-a]pyridin-7-yl)-N-(1-(3-fluorophenyl)ethyl)-1-methyl-1H-indole-3-carboxamide]",Inhibition ratio/%,PRP4(h),5%
same,Kinase selectivity,[1],good kinase selectivity
same,Inhibition ratio/%,Abl (Q252H)(h),29%
same,Inhibition ratio/%,PI3KC2g(h),24%
same,Inhibition ratio/%,GSK3α(h),48%
same,Inhibition ratio/%,Haspin(h),48%
same,Inhibition ratio/%,ASK1(h),38%
same,Inhibition ratio/%,HIPK1(h),48%
same,Inhibition ratio/%,PKA(h),55%
same,Inhibition ratio/%,HIPK4(h),68%
same,Inhibition ratio/%,PKCα(h),16%
same,Inhibition ratio/%,Blk(h),65%
same,Inhibition ratio/%,Itk(h),92%
same,Inhibition ratio/%,Plk4(h),15%
same,Inhibition ratio/%,CaMKK2(h),63%
same,Inhibition ratio/%,CDK12/cyclinK(h),−8%
same,Inhibition ratio/%,MAP4K3(h),28%
same,Inhibition ratio/%,MAPK2(m),33%
same,Inhibition ratio/%,MARK1(h),−13%
same,Inhibition ratio/%,CDKL2(h),62%
same,Inhibition ratio/%,Src(1-530)(h),20%
same,Inhibition ratio/%,cKit(V560G)(h),65%
same,Inhibition ratio/%,STK32A(h),55%
same,Inhibition ratio/%,Syk(h),69%
same,Inhibition ratio/%,mTOR(h),−11%
same,Inhibition ratio/%,MYLK2(h),−8%
same,Inhibition ratio/%,DYRK3(h),10%
same,Inhibition ratio/%,TrkA(h),−12%
same,Inhibition ratio/%,EGFR(L858R)(h),−5%
same,Inhibition ratio/%,EGFR(L861Q)(h),75%
same,Inhibition ratio/%,Txk(h),−12%
same,Inhibition ratio/%,PASK(h),53%
same,Inhibition ratio/%,[2],−4%
